Results reported in US11576922B2, “CD73 inhibitors” (ORIC Pharmaceuticals, Inc., priority 2017, dated 2023).

What follows are compounds tested against T1, CD73 (Homo sapiens, UniProt P21589) (assay: Example A1: Biochemical Assay (CD73 inhibition, Malachite Green detection of AMP hydrolysis)). Conditions: CD73 0.3208 nM, AMP 15 μM, Tris-HCl pH 7.4, Malachite Green, absorbance 620 nm; read-out: Biochemical IC50.
T1 sequence (P21589 27-549): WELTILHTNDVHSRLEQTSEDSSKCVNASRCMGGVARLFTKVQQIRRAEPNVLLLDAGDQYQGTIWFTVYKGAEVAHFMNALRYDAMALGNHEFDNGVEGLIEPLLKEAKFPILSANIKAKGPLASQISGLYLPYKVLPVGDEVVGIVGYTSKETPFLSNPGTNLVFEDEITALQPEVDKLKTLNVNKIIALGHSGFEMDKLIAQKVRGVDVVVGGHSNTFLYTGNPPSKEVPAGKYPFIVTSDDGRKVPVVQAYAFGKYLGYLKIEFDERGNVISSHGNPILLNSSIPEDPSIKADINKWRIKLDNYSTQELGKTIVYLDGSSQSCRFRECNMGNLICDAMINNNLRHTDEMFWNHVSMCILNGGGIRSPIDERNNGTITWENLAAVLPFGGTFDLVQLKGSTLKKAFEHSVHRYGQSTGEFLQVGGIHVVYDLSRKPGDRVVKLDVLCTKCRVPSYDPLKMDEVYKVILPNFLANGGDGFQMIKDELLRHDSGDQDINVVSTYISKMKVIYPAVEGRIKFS
Method in brief: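 CD73 (0.3208 nM) preincubated 15 min at RT with compounds (10-point half-log, from 100 μM, duplicate), then 15 μM AMP for 10 min in 25 mM Tris-HCl pH 7.4, 5 mM MgCl2, 0.01% Brij-35, 0.01% BSA. Released phosphate detected by malachite green absorbance; IC50 determined.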
`O=P(O)(O)CP(=O)(O)OC[C@H]1O[C@@H](n2nnc3c(N4CCC[C@@H]4c4ccccc4)nc(Cl)nc32)[C@H](O)[C@@H]1O` [Example 17, (((((2R,3S,4R,5R)-5-(5-chloro-7-((R)-2-phenylpyrrolidin-1-yl)-3H-[1,2,3]triazolo[4,5-d]pyrimidin-3-yl)-3,4-dihydroxytetrahydrofuran-2-yl)methoxy)(hydroxy)phosphoryl)methyl) phosphonic acid] gave an IC50 of 100 to 1000 nM.
For `O=P(O)(O)CP(=O)(O)OC[C@@H]1C[C@@H](O)[C@H](n2ncc3c(NCc4ccccc4Cl)nc(Cl)nc32)O1` [Example 48, (((((2S,4R,5R)-5-(6-chloro-4-((2-chlorobenzyl)amino)-1H-pyrazolo[3,4-d]pyrimidin-1-yl)-4-hydroxytetrahydrofuran-2-yl)methoxy)(hydroxy)phosphoryl)methyl) phosphonic acid], the IC50 was under 100 nM.
Work on `C[C@H](c1ccccc1)N(C)c1nc(Cl)nc2c1cnn2[C@@H]1O[C@H](COP(=O)(O)CP(=O)(O)O)[C@@H](O)[C@H]1O` [Example 42, (((((2R,3S,4R,5R)-5-(6-chloro-4-(methyl((R)-1-phenylethyl)amino)-1H-pyrazolo[3,4-d]pyrimidin-1-yl)-3,4-dihydroxytetrahydrofuran-2-yl)methoxy)(hydroxy)phosphoryl)methyl) phosphonic acid] yielded an IC50 of under 100 nM.
